For 17 compounds, IC50 and Activity results are on record in ChEMBL document CHEMBL5137135, “Highly Oxidized Germacranolides from Elephantopus tomentosus and the Configurational Revision of Some Previously Reported Analogues” (J Nat Prod, 2022).

Common to all, as to assay type: functional, cell-based
The test system of experiment [1] is HepG2. The experiment is described as follows: Cytotoxicity against human HepG2 cells assessed as inhibition of cell growth by MTT assay.
For experiment [2], the system named is Hep 3B2. Briefly: Cytotoxicity against human Hep3B cells assessed as inhibition of cell growth by MTT assay.
Experiment [3] deals with HepG2. Briefly: Induction of apoptosis in human HepG2 cells assessed as membrane blebbing at 1 to 4 uM after 48 hrs by phase contrast microscopic analysis. The settings on record: dose 1-4 µM.
For experiment [4], the system named is Hep 3B2. Briefly: Induction of apoptosis in human Hep3B cells assessed as membrane blebbing at 1 to 4 uM after 48 hrs by phase contrast microscopic analysis. The settings on record: dose 1-4 µM.
The subject of experiment [5] is HepG2. The experiment is described as follows: Induction of apoptosis in human HepG2 cells assessed as cellular shrinkage at 1 to 4 uM after 48 hrs by phase contrast microscopic analysis. To be noted: dose 1-4 µM.
The subject of experiment [6] is Hep 3B2. The experiment is described as follows: Induction of apoptosis in human Hep3B cells assessed as cellular shrinkage at 1 to 4 uM after 48 hrs by phase contrast microscopic analysis. The settings on record: dose 1-4 µM.
In experiment [7] the test system is HepG2. Briefly: Induction of apoptosis in human HepG2 cells at 1 to 4 uM after 48 hrs by Hoechst 33258 staining based assay. To be noted: dose 1-4 µM.
Experiment [8] deals with Hep 3B2. Briefly: Induction of apoptosis in human Hep3B cells at 1 to 4 uM after 48 hrs by Hoechst 33258 staining based assay. To be noted: dose 1-4 µM.
The test system of experiment [9] is HepG2. Briefly: Induction of mitochondrial membrane potential loss in human HepG2 cells by JC-1 staining based fluorescence assay.
Experiment [10] concerns Hep 3B2. The experiment is described as follows: Induction of mitochondrial membrane potential loss in human Hep3B cells by JC-1 staining based fluorescence assay.

pIC50: −log10 of the molar value. Activity calls are given as the source filed them. The calls are words filed in the database; no cut-off is given here.

On to `C=C1C(=O)O[C@H]2[C@H]1[C@@H](OC(=O)/C(C)=C/C)C/C(C)=C\[C@@]1(OC)C=C(C)[C@H]2O1`, for which the figures for the pIC50 in [1] and in experiment [2] were 5.01 and 5.30, respectively.
For `C=C1C(=O)O[C@H]2[C@H]1[C@@H](OC(=O)/C(C)=C/C)C/C(C)=C\[C@@]1(c3ccc(O)c(O)c3)C=C(C)[C@H]2O1`, the pIC50 in [1] was 5.52; in [2] it was 5.44.
The matching figures for `C=C1C[C@H](OC(=O)/C(C)=C/C)[C@H]2C(=C)C(=O)O[C@@H]2[C@@H]2O[C@@](OC)(C1)C[C@@]2(C)O`: 5.01 and 5.02.
For the compound `C=C1C[C@H](OC(=O)C(=C)C)[C@H]2C(=C)C(=O)O[C@@H]2[C@@H]2O[C@@](OC)(C1)C[C@@]2(C)O`, the results for the pIC50 in [1] and in experiment [2] were 5.09 and 5.62, respectively.
In the case of `C=C1C[C@H](OC(=O)C(=C)C)[C@H]2C(=C)C(=O)O[C@@H]2[C@@H]2O[C@](OC)(C=C2C)C1`, the pIC50 is 5.66 in [1] and 5.62 in experiment [2]. In addition, the result in experiment [3], in [4], in [5], in experiment [6], in experiment [7] and in experiment [8] was Active. Also, the outcome in [9] and in experiment [10] was Active.
As to `C=C(C)C(=O)O[C@H]1C/C(C)=C\[C@@]2(OC)C=C(C)[C@@H](O2)[C@H]2OC(=O)[C@@H](COC)[C@@H]21`, the pIC50 in experiment [1] and in experiment [2] was less than 5.00 each time.
Take `C=C(C)C(=O)O[C@H]1C/C(C)=C\[C@@]2(c3cccc(O)c3O)C=C(C)[C@@H](O2)[C@H]2OC(=O)C(=C)[C@@H]21`: the pIC50 in [1] was 5.37; in experiment [2], 5.25.
For the compound `C=C1C[C@H](OC(=O)/C(C)=C/C)[C@H]2C(=C)C(=O)O[C@@H]2[C@@H]2O[C@@](O)(C1)C[C@@]2(C)O`, the figures for the pIC50 in experiment [1] and in [2] were 5.06 and 5.51, respectively.
The matching figures for `C/C=C(\C)C(=O)O[C@H]1C/C(C)=C\[C@@]2(OC)C=C(C)[C@@H](O2)[C@H]2OC(=O)[C@@H](CO)[C@@H]21`: less than 5.00 and less than 5.00.
In the same order, the values of `C=C(C)C(=O)O[C@H]1C/C(C)=C\[C@@]2(c3ccc(O)c(O)c3)C=C(C)[C@@H](O2)[C@H]2OC(=O)C(=C)[C@@H]21` are 5.24 and 5.43.
For the compound `C=C1C(=O)O[C@H]2[C@H]1[C@@H](OC(=O)/C(C)=C\C)C/C(C)=C\[C@@]1(OC)C=C(C)[C@H]2O1`, the pIC50 in [1] is 5.46; in [2], 5.42.
Regarding `C=C1C[C@H](OC(=O)C(=C)C)[C@H]2C(=C)C(=O)O[C@@H]2[C@@H]2O[C@@](O)(C1)C[C@@]2(C)OC`, the values for the pIC50 in experiment [1] and in [2] were 5.07 and 5.12, respectively.
As to `C=C(C)C(=O)O[C@H]1C/C(C)=C\[C@@]2(OC)C=C(C)[C@@H](O2)[C@H]2OC(=O)C(=C)[C@@H]21`, the pIC50 in experiment [1] was 5.42; in experiment [2], 5.07.
As for `C=C1C(=O)O[C@H]2[C@H]1[C@@H](OC(=O)/C(C)=C/C)C/C(C)=C\[C@@]1(c3cccc(O)c3O)C=C(C)[C@H]2O1`, the pIC50 in experiment [1] was 5.35; in experiment [2] it was 5.24.
In the case of `C/C=C(/C)C(=O)O[C@H]1C/C(C)=C\[C@@]2(OC)C=C(C)[C@@H](O2)[C@H]2OC(=O)[C@@H](COC)[C@@H]21`, the pIC50 in experiment [1] and in experiment [2] was less than 5.00 in each case.
Take `C=C1C[C@H](OC(=O)C(=C)C)[C@H]2C(=C)C(=O)O[C@@H]2[C@@H]2O[C@@](O)(C1)C[C@@]2(C)O`: the negative logarithm of the IC50 (pIC50) in experiment [1] is 5.14; in experiment [2], 5.18.
In the same order, the values of `C=C1C[C@H](OC(=O)/C(C)=C/C)[C@H]2C(=C)C(=O)O[C@@H]2[C@@H]2O[C@](OC)(C=C2C)C1` are 5.42 and 5.07.
